Results on 22 compounds are retold here after patent US20250144094A1 (Erasca, Inc., priority 2021, published 2025).

Sequence of Recombinant human ULK1 (1-649) (O75385 1-649): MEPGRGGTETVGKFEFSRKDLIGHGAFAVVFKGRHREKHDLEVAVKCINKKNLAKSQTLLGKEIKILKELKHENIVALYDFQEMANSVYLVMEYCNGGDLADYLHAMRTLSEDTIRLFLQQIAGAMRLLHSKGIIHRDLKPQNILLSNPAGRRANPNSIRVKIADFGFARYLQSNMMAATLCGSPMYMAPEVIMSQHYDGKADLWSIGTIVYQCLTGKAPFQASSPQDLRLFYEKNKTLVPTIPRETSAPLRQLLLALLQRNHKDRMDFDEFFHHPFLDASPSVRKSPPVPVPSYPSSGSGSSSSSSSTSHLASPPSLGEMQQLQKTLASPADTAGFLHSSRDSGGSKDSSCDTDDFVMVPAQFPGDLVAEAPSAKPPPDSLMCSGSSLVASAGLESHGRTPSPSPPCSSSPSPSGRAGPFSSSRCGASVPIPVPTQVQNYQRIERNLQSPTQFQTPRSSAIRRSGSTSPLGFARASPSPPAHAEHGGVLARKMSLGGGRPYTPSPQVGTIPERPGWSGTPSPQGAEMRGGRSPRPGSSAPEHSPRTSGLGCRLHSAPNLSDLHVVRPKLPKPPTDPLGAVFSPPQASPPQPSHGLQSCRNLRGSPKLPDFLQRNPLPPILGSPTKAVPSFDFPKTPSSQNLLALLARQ

The target of the experiment is Recombinant human ULK1 (1-649) (Homo sapiens (Human), UniProt O75385). Nature of the experiment: ULK1 ADP Glo kinase activity assay (MBP substrate). Conditions: 25° C., 40 minutes, read-out: ULK1 biochemical IC50. As to the method:
Recombinant human ULK1 (1-649) protein expressed in Sf9 insect cells was obtained from SignalChem (Vancouver, BC), catalog #U01-11G. Active kinase was purified via N-terminal GST tag to >85% purity.
ADP GLO Kinase Assay Reagents were obtained from Promega Corp (Madison, WI), catalog #V9104.
MBP (myelin basic protein) substrate, bovine, purified, was obtained from Sigma (St. Louis, MO), catalog #M1891.
ULK1 inhibitor potency was determined using the luminescent ADP Glo Kinase Assay (Promega), a universal ADP detection system that measures kinase activity by quantifying the amount of ADP produced during a kinase reaction. ULK1 kinase reactions are performed in a standard 96-well microplate (20 uL reaction volume) at 25° C. for 40 minutes in the presence or absence of the test compound (12-point dilution series starting at 10 uM). Addition of MBP substrate and ATP initiates the kinase reaction.
The standard ADP Glo assay is performed in two steps. In step one, following the kinase reaction, an equal volume of ADP-Glo™ Reagent (20 uL) is added to terminate the kinase reaction and deplete the remaining ATP. In the second step, the Kinase Detection Reagent (10 uL) is added to simultaneously convert ADP to ATP and allow the newly synthesized ATP to be measured using a luciferase/luciferin reaction. Step two of the ADP Glo assay is performed in a white 384-well plate (20 uL final volume). Thirty minutes after the addition of the Detection reagent, light generated from the luciferase reaction is measured (1 second exposure) using a microplate compatible luminometer (CLARIOstar, BMG Labtech).
Inhibition of ULK1 kinase activity is determined for each test compound by comparison to DMSO only control wells. Inhibitor IC50 was calculated by plotting the change in luminescence after 30 minutes (response) versus inhibitor concentration (in log molar) then applying the four-parameter variable slope curve fit (GraphPad Prism). Inhibition of ULK1 in biochemical assay is found in Table 3.
On the technique in general: In ADP-Glo the light output rises with the ADP produced.
In general, IC50 refers to the point on the concentration scale where inhibition reaches its midpoint. Turning to `CN1Cc2cc(Nc3ncc(C(F)(F)F)c(-c4cc(C(N)=O)cs4)n3)c(C3CC3)cc2C1` [Example 19, 5-(2-((6-Cyclopropyl-2-methylisoindolin-5-yl)amino)-5-(trifluoromethyl)pyrimidin-4-yl)thiophene-3-carboxamide], the half-maximal inhibitory concentration (IC50) was at most 10 nM. On to `CCc1cc2c(cc1Nc1ncc(C(F)(F)F)c(-c3cc(C(N)=O)cs3)n1)CN(C)C2` [Example 20, 5-(2-((6-Ethyl-2-methylisoindolin-5-yl)amino)-5-(trifluoromethyl)pyrimidin-4-yl)thiophene-3-carboxamide], for which the IC50 lay within 10 to 50 nM.

For the compound `CN1CCc2sc(-c3nc(Nc4cc5c(cc4Cl)CNCC5)ncc3C(F)(F)F)cc2C1=O` [Example 21, 2-(2-((7-Chloro-1,2,3,4-tetrahydroisoquinolin-6-yl)amino)-5-(trifluoromethyl)pyrimidin-4-yl)-5-methyl-6,7-dihydrothieno[3,2-c]pyridin-4(5H)-one], the IC50 is at most 10 nM.

Take `CCN1CCc2sc(-c3nc(Nc4cc5c(cc4Cl)CNCC5)ncc3C(F)(F)F)cc2C1=O` [Example 22, 2-(2-((7-chloro-1,2,3,4-tetrahydroisoquinolin-6-yl)amino)-5-(trifluoromethyl)pyrimidin-4-yl)-5-ethyl-6,7-dihydrothieno[3,2-c]pyridin-4(5H)-one]: the IC50 is at most 10 nM. Take `O=c1[nH]ccc2sc(-c3nc(Nc4cc5c(cc4Cl)CNCC5)ncc3C(F)(F)F)cc12` [Example 23, 2-(2-((7-Chloro-1,2,3,4-tetrahydroisoquinolin-6-yl)amino)-5-(trifluoromethyl)pyrimidin-4-yl)thieno[3,2-c]pyridin-4(5H)-one]: the IC50 was at most 10 nM. The same measure for `O=c1[nH]ncc2sc(-c3nc(Nc4cc5c(cc4Cl)CNCC5)ncc3C(F)(F)F)cc12` [Example 24, 2-(2-((7-Chloro-1,2,3,4-tetrahydroisoquinolin-6-yl)amino)-5-(trifluoromethyl)pyrimidin-4-yl)thieno[2,3-d]pyridazin-4(5H)-one]: 10 to 50 nM; for `N#Cc1csc(-c2nc(Nc3cc4c(cc3Cl)CNCC4)ncc2C(F)(F)F)c1` [Example 25, 5-(2-((7-Chloro-1,2,3,4-tetrahydroisoquinolin-6-yl)amino)-5-(trifluoromethyl)pyrimidin-4-yl)thiophene-3-carbonitrile]: 10 to 50 nM; for `NC(=O)c1csc(-c2nc(Nc3cc4c(cc3Cl)CNCC4)ncc2C(N)=O)c1` [Example 26, 4-(4-Carbamoylthiophen-2-yl)-2-((7-chloro-1,2,3,4-tetrahydroisoquinolin-6-yl)amino)pyrimidine-5-carboxamide]: over 500 nM. Then `NS(=O)(=O)c1csc(-c2nc(Nc3cc4c(cc3Cl)CNCC4)ncc2C(F)(F)F)c1` [Example 27, 5-(2-((7-Chloro-1,2,3,4-tetrahydroisoquinolin-6-yl)amino)-5-(trifluoromethyl)pyrimidin-4-yl)thiophene-3-sulfonamide], with at most 10 nM.

Regarding `O=C1NCCCc2sc(-c3nc(Nc4cc5c(cc4Cl)CNCC5)ncc3C(F)(F)F)cc21` [Example 28, 2-(2-((7-Chloro-1,2,3,4-tetrahydroisoquinolin-6-yl)amino)-5-(trifluoromethyl)pyrimidin-4-yl)-5,6,7,8-tetrahydro-4H-thieno[3,2-c]azepin-4-one], the IC50 is at most 10 nM.

As to `O=C1NCCc2sc(-c3nc(Nc4cc5c(cc4C4CC4)CNCC5)ncc3C(F)(F)F)cc21` [Example 29, 2-(2-((7-Cyclopropyl-1,2,3,4-tetrahydroisoquinolin-6-yl)amino)-5-(trifluoromethyl)pyrimidin-4-yl)-6,7-dihydrothieno[3,2-c]pyridin-4(5H)-one], the 50% inhibitory concentration (IC50) is at most 10 nM.

Take `Cn1ccc2sc(-c3nc(Nc4cc5c(cc4Cl)CNCC5)ncc3C(F)(F)F)cc2c1=O` [Example 30, 2-(2-((7-Chloro-1,2,3,4-tetrahydroisoquinolin-6-yl)amino)-5-(trifluoromethyl)pyrimidin-4-yl)-5-methylthieno[3,2-c]pyridin-4(5H)-one]: the IC50 is at most 10 nM.

As to `Cn1ncc2sc(-c3nc(Nc4cc5c(cc4Cl)CNCC5)ncc3C(F)(F)F)cc2c1=O` [Example 31, 2-(2-((7-Chloro-1,2,3,4-tetrahydroisoquinolin-6-yl)amino)-5-(trifluoromethyl)pyrimidin-4-yl)-5-methylthieno[2,3-d]pyridazin-4(5H)-one], the IC50 was at most 10 nM. On to `CS(=O)(=O)c1csc(-c2nc(Nc3cc4c(cc3Cl)CNCC4)ncc2C(F)(F)F)c1` [Example 32, 7-Chloro-N-(4-(4-(methylsulfonyl)thiophen-2-yl)-5-(trifluoromethyl)pyrimidin-2-yl)-1,2,3,4-tetrahydroisoquinolin-6-amine], for which the IC50 is at most 10 nM. Consider `O=C1NCCc2sc(-c3nc(Nc4cc5c(cc4Cl)CNC5)ncc3C(F)(F)F)cc21` [Example 33, 2-(2-((6-Chloroisoindolin-5-yl)amino)-5-(trifluoromethyl)pyrimidin-4-yl)-6,7-dihydrothieno[3,2-c]pyridin-4(5H)-one], for which the IC50 was at most 10 nM. Take `CCc1cc2c(cc1Nc1ncc(C(F)(F)F)c(-c3cc4c(s3)CCNC4=O)n1)CCNC2` [Example 34, 2-(2-((7-ethyl-1,2,3,4-tetrahydroisoquinolin-6-yl)amino)-5-(trifluoromethyl)pyrimidin-4-yl)-6,7-dihydrothieno[3,2-c]pyridin-4(5H)-one]: the IC50 was at most 10 nM. Turning to `CSc1cc2c(cc1Nc1ncc(C(F)(F)F)c(-c3cc4c(s3)CCNC4=O)n1)CCNC2` [Example 35, 2-(2-((7-(Methylthio)-1,2,3,4-tetrahydroisoquinolin-6-yl)amino)-5-(trifluoromethyl)pyrimidin-4-yl)-6,7-dihydrothieno[3,2-c]pyridin-4(5H)-one], the IC50 was at most 10 nM. The same measure for `CN1CCN(c2ccc(Nc3ncc(C(F)(F)F)c(-c4cc5c(s4)CCNC5=O)n3)c(C3CC3)c2)CC1` [Example 36, 2-(2-((2-Cyclopropyl-4-(4-methylpiperazin-1-yl)phenyl)amino)-5-(trifluoromethyl)pyrimidin-4-yl)-6,7-dihydrothieno[3,2-c]pyridin-4(5H)-one]: at most 10 nM; for `CCc1cc(N2CCN(C)CC2)ccc1Nc1ncc(C(F)(F)F)c(-c2cc(C(N)=O)cs2)n1` [Example 37, 5-(2-((2-Ethyl-4-(4-methylpiperazin-1-yl)phenyl)amino)-5-(trifluoromethyl)pyrimidin-4-yl)thiophene-3-carboxamide]: at most 10 nM. Regarding `CP(C)(=O)c1csc(-c2nc(Nc3cc4c(cc3Cl)CNCC4)ncc2C(F)(F)F)c1` [Example 38, (5-(2-((7-Chloro-1,2,3,4-tetrahydroisoquinolin-6-yl)amino)-5-(trifluoromethyl)pyrimidin-4-yl)thiophen-3-yl)dimethylphosphine oxide], the IC50 lay within 10 to 50 nM.

Consider `CCc1cc(N2CCN(C)CC2)ccc1Nc1ncc(C(F)(F)F)c(-c2cc3c(s2)CCNC3=O)n1` [Example 39, 2-(2-((2-ethyl-4-(4-methylpiperazin-1-yl)phenyl)amino)-5-(trifluoromethyl)pyrimidin-4-yl)-6,7-dihydrothieno[3,2-c]pyridin-4(5H)-one], for which the IC50 is at most 10 nM. Turning to `CC1(C)NC(=O)c2cc(-c3nc(Nc4cc5c(cc4Cl)CNCC5)ncc3C(F)(F)F)sc21` [Example 40, 2-(2-((7-chloro-1,2,3,4-tetrahydroisoquinolin-6-yl)amino)-5-(trifluoromethyl)pyrimidin-4-yl)-6,6-dimethyl-5,6-dihydro-4H-thieno[2,3-c]pyrrol-4-one], the half-inhibitory concentration (IC50) is at most 10 nM.
